These results are taken from patent US11542266B1, “Substituted piperidines as BTK inhibitors” (HAISCO PHARMACEUTICALS PTE. LTD., priority 2019, dated 2023).

In one series the test system is OCI-LY10 cells. Nature of the series: Inhibition of cell proliferation, OCI-LY10 cells (Cell Viability Assay, 72 h). It is filed as cell-based. To be noted: Homo sapiens. Here is the method: (§1) OCI-LY10 and TMD-8 cells, in the culture medium of RPMI1640+10% FBS, were cultured in an incubator at 37° C. under 5% CO2. Cells were plated in a 96-well plate. Specifically, OCI-LY10 cells were at 10000/well, and TMD-8 cells were at 8000/well, with 90 μL/well. These cells were cultured at 37° C. under 5% CO2 overnight. On the next day, 10 μL of the compounds at different concentrations were added to each well. There were 3 replicate wells for each concentration, and the last column, added with DMSO, was used as a vehicle control group. The cultures were continued for 72 hours at 37° C. under 5% CO2. After 72 hours, 50 μL of detection reagent (Cell Viability Assay, Promega, G7573) was added to each well, and the cultures were uniformly mixed for 2 minutes, and incubated at room temperature for 10 minutes. The fluorescence signal value was measured with an Envision2104 plate reader (PerkinElmer). The inhibition rate was calculated using formula (2), wherein RLUcompound was the readout of the drug treated group, RLUcontrol was the average value of the vehicle control group, and RLUblank was the average value of the cell-free wells. The IC50 value was calculated using GraphPad Prism software. IR (%)=(1−(RLUcompound-RLUblank)/(RLUcontrol-RLUblank))*100% formula (2)

The next series concerns SU-DHL-6 cells. Briefly: Inhibition of cell proliferation, SU-DHL-6 cells (Cell Viability Assay, 72 h). It is filed as cell-based. To be noted: Homo sapiens. On the procedure: (§2) SU-DHL-4, Mino, and SU-DHL-6 cells, in the culture medium of RPMI1640+10% FBS, were cultured in an incubator at 37° C. under 5% CO2. Cells were plated in a 96-well plate. Specifically, SU-DHL-4 cells were at 20000/well, Mino and SU-DHL-6 cells were at 5000/well, with 90 μL/well. 10 μL of the compounds at different concentrations were added to each well. There were 3 replicate wells for each concentration, and the last column, added with DMSO, was used as a vehicle control group. The cultures were continued for 72 hours at 37° C. under 5% CO2. After 72 hours, 100 μL of detection reagent (Cell Viability Assay, Promega, G7573) was added to each well, and the cultures were uniformly mixed for 2 minutes, and incubated at room temperature for 10 minutes. The fluorescence signal value was measured with a microplate reader (PHERAstar FSX). The IC50 value of the compound on cell proliferation inhibition was calculated using Origin 9.2 software, and the inhibition rate at the highest concentration of the compound (Max inhi. %) was calculated according to formula (1). Max inhi. %=(1-T72 administration/T72 vehicle)×100 Formula (1).

A further series has as its system SU-DHL-4 cells. Briefly: Inhibition of cell proliferation, SU-DHL-4 cells (Cell Viability Assay, 72 h). It is filed as cell-based, human. To be noted: Homo sapiens. On the procedure: as §2
In the next series the test system is TMD-8 cells. Nature of the series: Inhibition of cell proliferation, TMD-8 cells (Cell Viability Assay, 72 h). It is filed as cell-based. To be noted: Homo sapiens, TMD8. On the procedure: as §1
Another series deals with Mino cells. Briefly: Inhibition of cell proliferation, Mino cells (Cell Viability Assay, 72 h). To be noted: Homo sapiens. It is filed as cell-based, human. The method, boiled down:
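RPMI1640 + 10% FBS cultures seeded at 20000/well (SU-DHL-4) or 5000/well (Mino, SU-DHL-6), exposed to compound dilutions in triplicate for 72 h at 37 °C, 5% CO2, DMSO vehicle control. Viability read by luminescent reagent; IC50 from dose-response and Max inhi. % = (1 − T72 treated/T72 vehicle)×100 at top concentration.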

Series [1] is described as follows: Pharmacokinetic experiment in rats (i.g. vehicle 0.5% MC). It is filed as in vivo. To be noted: Sprague-Dawley (SD), rat, plasma, po, male SD rats; for bioavailability: i.g. 20 mg/kg (0.5% MC) vs i.v. 5 mg/kg; for AUC(0-t): i.g. 20 mg/kg, vehicle 0.5% MC, read-out: AUC0-t. Here is the method:
(§3) Objective: In this experiment, a single dose of each test compound was administered to SD rats intravenously and intragastrically, the concentrations of the test compound in plasma of rats were measured, and the pharmacokinetic characteristics and bioavailability of the test compound in rats were evaluated.
Experimental animals: Male SD rats, 200-250 g, 6-8 weeks old, 6 rats/test compound. The experimental animals were purchased from CHENGDU DOSSY EXPERIMENTAL ANIMALS CO., LTD.
(§4) Experimental method: On the day of the experiment, 6 SD rats were randomly grouped according to their body weight. The animals were fasted with water available for 12 to 14 hours one day before the administration of a test compound, and were fed 4 hours after the administration.
Sampling: Before and after the administration, 0.1 ml of blood was taken from the orbit of the rats under isoflurane anesthesia, and placed in an EDTAK2 centrifuge tube. Centrifugation was carried out at 5000 rpm at 4° C. for 10 min and the plasma was collected.
Time points for plasma collection in G1 group: 0, 5 m, 15 m, 30 m, 1 h, 2 h, 4 h, 6 h, 8 h, and 24 h.
Time points for plasma collection in G2 group: 0, 15 m, 30 m, 1 h, 2 h, 4 h, 6 h, 8 h, and 24 h.
(§5) Before analysis and detection, all samples were stored at −80° C. The samples were analyzed quantitatively by LC-MS/MS.

Series [2] can be described thus: Pharmacokinetic experiment in rats (i.g. vehicle DMSO/Solutol/PEG-400/SBE-β-CD). To be noted: Sprague-Dawley (SD), rat, plasma, po, male SD rats; for bioavailability: i.g. 20 mg/kg (DMSO/Solutol/PEG-400/SBE-β-CD) vs i.v. 5 mg/kg; for AUC(0-t): i.g. 20 mg/kg, vehicle 5% DMSO + 5% Solutol + 30% PEG-400 + 60% (20%SBE-β-CD). It is filed as in vivo. Here is the method:
as §3
Experimental animals: Male SD rats, 200-250 g, 6-8 weeks old, 6 rats/compound. The experimental animals were purchased from CHENGDU DOSSY EXPERIMENTAL ANIMALS CO., LTD.
as §4
Sampling: Before and after the administration, 0.1 mL of blood was taken from the orbit of the rats under isoflurane anesthesia, and placed in an EDTAK2 centrifuge tube. Centrifugation was carried out at 5000 rpm at 4° C. for 10 min and the plasma was collected.
Time points for plasma collection in G1 group: 0, 5 min, 15 min, 30 min, 1 h, 2 h, 4 h, 6 h, 8 h, and 24 h.
Time points for plasma collection in G2 group: 0, 15 min, 30 min, 1 h, 2 h, 4 h, 6 h, 8 h, and 24 h.
as §5

On to `Nc1ncnc2c1c(-c1ccc(Oc3ccccc3)cc1)nn2C1CCN(C2CCN(C3CN(c4ccc5c(c4)C(=O)N(C4CCC(=O)NC4=O)C5=O)C3)CC2)CC1` (stereo not drawn) [Compound 8, 5-(3-(4-(4-amino-3-(4-phenoxyphenyl)-1H-pyrazolo[3,4-d]pyrimidin-1-yl)-[1,4′-bipiperidin]-1′-yl)azetidin-1-yl)-2-(2,6-dioxopiperidin-3-yl)isoindoline-1,3-dione tritrifluoroacetate], for which the IC50 in the series with OCI-LY10 cells came out at 3 nM; in the series with SU-DHL-6 cells it was 399 nM; in the series on SU-DHL-4 cells it was 255 nM; in the series on TMD-8 cells, 22 nM; with Mino cells, 309 nM. The molecule also registered a bioavailability in series [1] of 11.8 ± 4.4%. Also, the AUC(0-t) in series [1] is 634 ± 238 ng·h/mL.
Consider `Nc1ncnc2c1c(-c1ccc(Oc3ccccc3)cc1)nn2C1CCN(C2CN(C3CN(c4ccc5c(c4)C(=O)N(C4CCC(=O)NC4=O)C5=O)C3)C2)CC1F` (stereo not drawn) [Compound 19-1, trans-5-(3-(4-(4-amino-3-(4-phenoxyphenyl)-1H-pyrazolo[3,4-d]pyrimidin-1-yl)-3-fluoropiperidin-1-yl)-[1,3′-biazetidin]-1′-yl)-2-(2,6-dioxopiperidin-3-yl)isoindoline-1,3-dione], for which the IC50 in the series with OCI-LY10 cells was found to be 23 nM; in the series on SU-DHL-4 cells, 394 nM; in the series with TMD-8 cells, 14 nM. The AUC(0-t) in series [1] worked out at 1260 ± 117 ng·h/mL.
Take `Nc1ncnc2c1c(-c1ccc(Oc3ccccc3)cc1)nn2[C@@H]1CCN(C2CN(C3CN(c4ccc5c(c4)C(=O)N(C4CCC(=O)NC4=O)C5=O)C3)C2)C[C@@H]1F` (stereo partly drawn) [Compound 38, 5-[3-[3-[(3S,4R)-4-[4-amino-3-(4-phenoxyphenyl)pyrazolo[3,4-d]pyrimidin-1-yl]-3-fluoro-1-piperidyl]azetidin-1-yl]azetidin-1-yl]-2-(2,6-dioxo-3-piperidyl)isoindoline-1,3-dione]: the IC50 amounted to 888 nM in the series with SU-DHL-6 cells, 469 nM in the series with SU-DHL-4 cells and 81 nM with Mino cells. This molecule also had a bioavailability in series [2] of 13.3 ± 5.2%. The AUC(0-t) in series [2] came out at 7260 ± 2860 ng·h/mL.
On to `Nc1ncnc2c1c(-c1ccc(Oc3ccccc3)cc1)nn2[C@@H]1CCN(C2CN(C3CN(c4ccc5c(c4)C(=O)N(C4CCC(=O)NC4=O)C5=O)C3)C2)C[C@H]1F` (stereo partly drawn) [Compound 39, 5-(3-((3R,4R)-4-(4-amino-3-(4-phenoxyphenyl)-1H-pyrazolo[3,4-d]pyrimidin-1-yl)-3-fluoropiperidin-1-yl)-[1,3′-biazetidin]-1′-yl)-2-(2,6-dioxopiperidin-3-yl)isoindoline-1,3-dione], for which, in series [2], the bioavailability turned out to be 9.1 ± 1.5% and the AUC(0-t) was 2830 ± 474 ng·h/mL. Moreover, the IC50 in the series on Mino cells was found to be 41 nM.
As for `Nc1ncnc2c1c(-c1ccc(Oc3ccccc3)cc1)nn2[C@H]1CCN(C2CN(C3CN(c4ccc5c(c4)C(=O)N(C4CCC(=O)NC4=O)C5=O)C3)C2)C[C@H]1F` (stereo partly drawn) [Compound 41, 5-(3-((3R,4S)-4-(4-amino-3-(4-phenoxyphenyl)-1H-pyrazolo[3,4-d]pyrimidin-1-yl)-3-fluoropiperidin-1-yl)-[1,3′-biazetidin]-1′-yl)-2-(2,6-dioxopiperidin-3-yl)isoindoline-1,3-dione], the IC50 with SU-DHL-6 cells was determined as 670 nM; in the series with SU-DHL-4 cells it was 329 nM; in the series on Mino cells it was 10.3 nM. In addition, in series [2], the bioavailability was found to be 10.8 ± 1.5%. Moreover, the AUC(0-t) in series [2] turned out to be 7910 ± 1100 ng·h/mL.
The matching figures for `Nc1ncnc2c1c(-c1ccc(Oc3ccccc3)cc1)nn2[C@H]1CCN(C2CN(C3CN(c4ccc5c(c4)C(=O)N(C4CCC(=O)NC4=O)C5=O)C3)C2)C[C@@H]1F` (stereo partly drawn) [Compound 43, 5-[3-[3-[(3S,4S)-4-[4-amino-3-(4-phenoxyphenyl)pyrazolo[3,4-d]pyrimidin-1-yl]-3-fluoro-1-piperidyl]azetidin-1-yl]azetidin-1-yl]-2-(2,6-dioxo-3-piperidyl)isoindoline-1,3-dione]: 407 nM, 330 nM, 10 nM, 11 ± 2.2% and 4500 ± 886 ng·h/mL.
In the case of `Nc1ncnc2c1c(-c1ccc(Oc3ccccc3)cc1)nn2[C@H]1CCN(C2CCN(C3CN(c4ccc5c(c4)C(=O)N(C4CCC(=O)NC4=O)C5=O)C3)CC2)C[C@@H]1F` (stereo partly drawn) [Compound 44, 5-(3-((3S,4S)-4-(4-amino-3-(4-phenoxyphenyl)-1H-pyrazolo[3,4-d]pyrimidin-1-yl)-3-fluoro-[1,4′-bipiperidin]-1′-yl)azetidin-1-yl)-2-(2,6-dioxopiperidin-3-yl)isoindoline-1,3-dione], in series [2], the bioavailability was found to be 5.73 ± 0.64% and the AUC(0-t) is 877 ± 98 ng·h/mL. Moreover, half-maximal inhibition in the series with Mino cells (IC50) required 15 nM.
In the case of `Nc1ncnc2c1c(-c1ccc(Oc3ccccc3)cc1)nn2[C@@H]1CCCN(C(=O)c2cn(CCOCCOCCOCCNc3cccc4c3C(=O)N(C3CCC(=O)NC3=O)C4=O)nn2)C1` (stereo partly drawn) [Compound P13I, reference compound], the IC50 in the series on OCI-LY10 cells was found to be 29 nM; in the series on SU-DHL-6 cells, 1640 nM; in the series with SU-DHL-4 cells, 1180 nM; in the series on TMD-8 cells, 104 nM; in the series with Mino cells, 844 nM. For the same molecule, the bioavailability in series [2] and in series [1] was 0% each time.
